Data reported in US20030157715A1, “Modulation of chromosome function by chromatin remodeling agents” (priority 2000, published 2003).
Several values for one entry are separate records, joined by “and”; a condition that tells them apart may be missing. Equal entries are not always repeated. Entries after “also recorded” stand apart in the source; their conditions may differ.

What was measured:
[1] = system: satellite III chromatin in Kc nuclei; test: Chromatin opening of satellite III: topoisomerase II / restriction enzyme cleavage in Kc nuclei; type: biochemical, Drosophila
w^m4 flies = test: Polyamides fed to developing white-mottled flies; type: in vivo, Drosophila melanogaster; conditions: for Lethality / Sex comb (mean) / Sex comb, range of teeth / A6 to A5: fly stock w^m4; for A6 to A5: males with bristles on A6
Text: The eye phenotype of w^m4 flies is quite heterogeneous. About 65% of the eyes are strongly variegated, ranging from quasi-white with little pigment to those containing a generally white background and a number of red patches (defined as the white-mottled class). The remaining flies have eyes with a darker appearance with often larger red patches in an orange background (red-mottled class). Given the phenotypic heterogeneity of w^m4 flies, we carried out our experiments on a relatively large scale by mixing these compounds directly with semi-synthetic fly medium. Vials were prepared containing a final concentration of either 100 μM P9, P31 or no compound. Equal numbers of 5 to 10 days old w^m4 flies were allowed to lay eggs for 36 hours. The parents were then removed and progeny development was allowed to proceed at a constant temperature of 18° C. […] The timing of the developmental stages was also normal and generally, around 90 to 160 flies hatched per vial in this experiment (Table 2).
For eye phenotype analysis, young flies born on the same day were transferred to a drug-free vial and scored 5 days thereafter. Eye phenotypes were categorized into the two classes defined as white-mottled or red-mottled, after examination under a dissection microscope. […] Where in the absence of the drug, 62% of the eyes were scored as white-mottled, only 11% retained this phenotype for the flies raised in the presence of P9. […] In contrast, P31 had no effect on the w^m4 eye phenotype, since 64% of the flies remained white-mottled (FIG. 7C, Table 2).
Vials for egg laying containing polyamides were prepared as follows: 250 nmoles of P9, P31 was dissolved in 150 μl ddH2O and then mixed with 2.35 g of semi-synthetic fly media pre-heated at 60° C. These vials contained a concentration 100 μM of compound in final. After cooling down to room temperature, ˜300 w^m4 flies (age 5-10 days) were added to the vial for egg laying. Eggs were collected for a period of 36 hours at 18° C., mother flies were then removed and fly development was allowed to proceed at a constant temperature (18° C.±1). New-born flies of the same day were transferred to a fresh vial and scored after 5 days for eye phenotypes (Girard et al., 1998). For visual inspection of eye-phenotypes (Table 1), both female and male flies were scored. For optical density measurements of the eye-pigments, 30 heads of males were selected, pigments extracted and measured as described (Hazelrigg et al., 1984).
(§1) The lethality of the progenies was calculated by counting the dead bodies and the total empty pupal shells. The A6 to A5 transformation was detected by bristles that form on abdominal segment A6 on males. All male adult flies obtained (˜50) were scored. Sex combs and halteres were individually inspected and photographed under the microscope (Axiophot, Zeiss) after dissecting at least 30 individuals and incubating them into 30 μl of 0.6 g/ml gum arabic; 4 g/ml chlorohydrate; 35% glycerol under a 24×24 mm coverslip as described (Ashburner, 1989). Since raising double heterozygous flies (Ubx^1/+; bw^D/+) led to lethality, we morphologically dissected eight late stage pupae after carefully removing the pupal envelope.

[2] = system: heterozygous bw^D flies (bw^D/+); test: Polyamides fed to developing heterozygous brown-dominant flies; type: in vivo, Drosophila melanogaster; conditions: for eye phenotype / trans-inactivation (in words): bw^D/+, st/st progeny
Procedure: It was therefore of great interest to test whether P31 would affect the eye phenotype of heterozygous bw^D flies. […] The experiment is similar to that described above for w^m4. Vials with semi-synthetic fly food medium were prepared containing a final concentration of 100 μM P31, P9 or no compound. Egg laying was allowed to proceed for 36 hours by homozygous (bw^D/bw^D) females that were crossed with scarlet (st/st) males. The progeny from this cross is heterozygous for the brown locus and homozygous for scarlet (bw^D/+; st/st). In a scarlet background, a modification of the bw^D eye color is much easier to observe (Talbert et al., 1994).
Drug treatments of the bw^D flies were performed as for w^m4 flies except that 30 parental females were allowed to lay eggs. To obtain the heterozygous bw^D/+; st/st progeny, 30 virgin bw^D/bw^D; st/st homozygous females were mated with scarlet homozygous males for about 5 days before transferring them to experimental vials for egg laying.
as §1

[3] = system: GAF distribution at the bw^D insert of polytene nuclei; test: GAF immunofluorescence in permeabilized bw^D salivary glands; type: cell-based, Drosophila melanogaster; conditions: permeabilized glands incubated 60 minutes with compound
Procedure: We argued that perhaps P31 may open the bw^D insert as to render this heterochromatin more accessible for GAF binding. To address this question, we incubated permeabilized bw^D salivary glands either with P31, P9 or no drug and then triply stained the polytene nuclei for GAF (by immunofluorescence), total DNA (with DAPI) and for the bw^D insert (with P31T). Stained polytene glands were gently mounted for microscopy without squashing in order examine a large number of nuclei.
Kc nuclei and polytene chromosomes were stained with fluorescent polyamides as described elsewhere (Janssen et al., 2000). For immunofluorescence, polytene glands were carefully dissected from bw^D or Canton S. flies in 1× PBS as described (Ashburner, 1989) Whole glands in sol P (1×PBS supplemented with 1 mM MgCl2 and 0.1% digitonin) were then incubated for 60 minutes with various concentrations of either P31, P9 or no compound at room temperature. P31 (not P9) induced redistribution of GAF during this incubation step. Glands were washed then twice for 5 min with sol P and fixed with fresh paraformaldehyde at a final concentration of 0.8%. Glands were washed 5 times in sol P for 5 min and then blocked for 60 min in the same buffer, supplemented with 5% non-fat milk. […] Images were recorded with a wide field, deconvolution-type imaging system from DeltaVision.

[4] = 100 μM in fly food, eyes scored after 5 days
[5] = 30 male heads, spectrometry, 100 μM in food

SMILES: CN(C)CCCNC(=O)CCNC(=O)c1cc(NC(=O)c2cc(NC(=O)c3cc(NC(=O)CCNC(=O)c4cc(NC(=O)c5cc(NC(=O)c6cccn6C)cn5C)cn4C)cn3C)cn2C)cn1C [Compound P9, PyPyPy-β-PyPyPy-β-Dp]
- facilitation of cleavage by topoisomerase II (in words) [1]: strongly facilitate cleavage
- stimulation of topoisomerase II cleavage at 62 nM ([1]; 62 nM, lowest concentration): massive cleavage stimulation
- concentration of maximal stimulation of topoisomerase II cleavage ([1]; Kc nuclei in Xenopus egg extracts, VM26): 500 nM and 500 to 1000 nM
- lower concentration than P31 needed to open satellite III ([1]; P9 versus P31): roughly 10 fold
- cleavage within satellite III by restriction enzymes (HaeIII) ([1]; data not shown): facilitated cleavage within satellite III by restriction enzymes
- effect on PEV / w^m4 eye phenotype (in words) (w^m4 flies; 100 μM in fly food): strong suppressor of PEV
- "White mottled" (Strongly Variegated) (w^m4 flies; [4]): 8.9%
- red pigment level relative to control flies (no drug) (w^m4 flies; [5]): about 3 times
- red pigment level relative to wild type flies (w^m4 flies; [5]): about 50%
- Lethality (w^m4 flies): 5-10%
- Sex comb (mean) (w^m4 flies): 10.8
- Sex comb, range of teeth (w^m4 flies): 9-12
- A6 to A5 (w^m4 flies): 0%
- eye phenotype / trans-inactivation (in words) [2]: indistinguishable from that of the no-drug control
- A6 to A5, number of bristles on A6 ([2]; fly stock bw^D/bw^+): no bristles were observed
- Lethality ([2]; fly stock bw^D/bw^+): 5-10%
- A6 to A5 ([2]; fly stock bw^D/bw^+, males with bristles on A6): 0%
- GAF distribution relative to the bw^D insert [3]: does not alter this pattern

SMILES: CN(C)CCCNC(=O)CCNC(=O)c1nc(NC(=O)CCNC(=O)c2nc(NC(=O)CCNC(=O)c3cc(NC(=O)c4nc(NC(=O)CCNC(=O)c5nccn5C)cn4C)cn3C)cn2C)cn1C [Compound P31, Im-β-Im-Py-β-Im-β-Im-β-Dp]
- concentration giving cleavage stimulation comparable to 62 nM of P9 [1]: 500 nM
- stimulation of topoisomerase II cleavage up to 200 nM ([1]; up to 200 nM): no significant reinforcement
- effect on PEV / w^m4 eye phenotype (in words) (w^m4 flies; 100 μM in fly food): no effect; also recorded: no activity
- "White mottled" (Strongly Variegated) (w^m4 flies; [4]): 64%
- "red Mottled" (Weakly Variegated) (w^m4 flies; [4]): 36%
- Lethality (w^m4 flies): 5-10%
- Sex comb (mean) (w^m4 flies): 10.8
- Sex comb, range of teeth (w^m4 flies): 9-13
- A6 to A5 (w^m4 flies): 0%
- mean number of bristles on A6 ([2]; bw^D/+ progeny): 3.75
- eye phenotype / trans-inactivation (in words) [2]: does not overcome trans-inactivation to a significant extent
- Lethality ([2]; fly stock bw^D/bw^+): 5-10%
- Sex comb (mean) ([2]; fly stock bw^D/bw^+): 8.1
- Sex comb, range of teeth ([2]; fly stock bw^D/bw^+): 7-10
- PEV ([2]; fly stock bw^D/bw^+, grade, key not given): (+?)
- progeny lacking bristles on A6 ([2]; heterozygous progeny): about 10%
- Pupae delay ([2]; in vivo): 65 to 67 h
- developmental delay ([2]; in vivo): over 2 days
- GAF distribution relative to the bw^D insert [3]: dramatic GAF redistribution
